US8912146B2, “Derivatives of APF and methods of use” (University of Maryland, Baltimore, priority 2008, dated 2014)
*1 amine or outer side, *2 acyl side, *3 side chain or, on linkers, in order; H or OH if unused. Where a SMILES comes first, the peptide text is derived from it. [ ]: non-standard residue; d: D form. The star is where a group is joined. ξ: configuration not given here. X1 = CC(=O)NC1C(O[C@@H]2OC(CO)[C@H](O)C(O)C2O)[C@@H](O)C(CO)O[C@@H]1*; X2 = CC(C)(C)OC1C[C@@H](C(=O)[*:2])N([*:1])C1; X3 = O=C([C@@H]1CC(O)CN1[*:1])[*:2]; Thr(3ξ) = CC(O)[C@H](N)C(=O)O; ξY = NC(Cc1ccc(O)cc1)C(=O)O; NMeA = CN[C@@H](C)C(=O)O; ξI = CCC(C)C(N)C(=O)O; ξL = CC(C)CC(N)C(=O)O; ξV = CC(C)C(N)C(=O)O; ξA = CC(N)C(=O)O

System: primary normal human bladder epithelial cells
Experiment: 3H-thymidine incorporation (antiproliferative activity) in primary normal bladder epithelial cells
Format: cell-based
Conditions: for % of activity: relative to 1 (as-APF) run on the same plate, from IC50, inactive = no significant activity at <25 μM
Protocol: Cell Culture. Cystoscopy was performed under general anesthesia, and 4-mm^2 pieces of transitional epithelium with submucosal bladder tissue were obtained for the growth of primary bladder epithelial cells, as previously described (Keay et al., 1996; 2004). Primary normal bladder epithelial cells were propagated in DMEM-F12 (Media-Tech, Herndon Va.) with 10% heat-inactivated fetal bovine serum (FBS), 1% antibiotic/antimycotic solution, 1% L-glutamine, 0.25 units/mL insulin (all from Sigma, St. Louis, Mo.), and 5 ng/mL hEGF (R&D Systems, Minneapolis, Minn.) at 37° C. in a 5% CO2 atmosphere and characterized by binding of AE-1/AE-3 pancytokeratin antibodies (Signet, Dedham, Mass.).
^3H-Thymidine Incorporation. Cell proliferation was measured by ^3H-thymidine incorporation into explanted normal human bladder epithelial cells, plating 1.5×10^4 cells/well onto a 96 well cell culture plate (VWR 29442-054), in 150 ul/well MEM containing 10% heat inactivated FBS, 1% antibiotic/antimycotic solution, and 1% L-glutamine (all from Sigma), resulting in a doubling time of 48-72 hours, as previously described (Keay et al., 1996; 2004). Each purified lyophilized synthetic APF congener was resuspended in acetonitrile/distilled water (1:1), and applied to the cells in serum-free MEM (containing only L-glutamine and antibiotics/antimycotics); cell controls received acetonitrile/distilled water diluted in serum-free MEM alone. Cells were then incubated at 37° C. in a 5% CO2 atmosphere for 48 hours. The cell contents harvested and methanol-fixed onto glass fiber filter paper, and the amount of radioactivity incorporated determined. Significant inhibition of ^3H-thymidine incorporation was defined as a mean decrease in counts per minute of greater than 2 standard deviations from the mean of control cells for each plate. Inhibition of cell proliferation was determined from a semi-log plot of dose-response for each APF derivative; IC50 was determined as the concentration of each derivative that caused a mean 50% inhibition of thymidine incorporation as compared to the mean of untreated cell controls.
Statistical Analysis. The thymidine incorporation (APF biological activity) assay was performed in triplicate on at least two separate runs, with 1 run simultaneously in triplicate on the same plate. The significance of the difference between mean values for each congener vs. mean values for compound 1 was determined by an analysis of variance.

SMILES	antiproliferative activity compared with as-APF (1), in words	% of activity	activity (as-APF8 analogues Galβ1-3GalNAcα-O-TVPAA-R-R-R, Table 7) [%]
CC(=O)NC1C(O[C@@H]2OC(CO)[C@H](O)C(O)C2O)[C@@H](O)C(CO)O[C@@H]1OC(C)[C@H](N)C(=O)NC(C(=O)N1CCC[C@H]1C(=O)NC(C)C(=O)N[C@@H](C)C(=O)O)C(C)C (stereo partly shown) [Derivative 17] (H-[Thr(3ξ)](X1)[ξV]P[ξA]A-OH)	completely inactive	inactive	–
CC(=O)NC1C(O[C@@H]2OC(CO)[C@H](O)C(O)C2O)[C@@H](O)C(CO)O[C@@H]1OC[C@H](N)C(=O)NC(C(=O)N1CCC[C@H]1C(=O)NC(C)C(=O)N[C@@H](C)C(=O)NC(C(=O)N[C@H](C(=O)NC(C(=O)N[C@@H](C)C(=O)O)C(C)C)C(C)C)C(C)C)C(C)C (stereo partly shown) [Derivative 3] (H-S(X1)[ξV]P[ξA]A[ξV]V[ξV]A-OH)	4 orders of magnitude	0.01%	–
CC(=O)NC1C(O[C@@H]2OC(CO)[C@H](O)C(O)C2O)[C@@H](O)C(CO)O[C@@H]1OC(C)[C@H](N)C(=O)NC(C(=O)N1CCC[C@H]1C(=O)NC(C)C(=O)N[C@@H](C)C(=O)NC(C(=O)N[C@H](C(=O)NC(C(=O)N[C@@H](C)C(=O)O)C(C)C)C(C)C)C(C)C)C(C)C (stereo partly shown) [Derivative 36]	complete inactivity	inactive	–
CC(=O)NC1C(O[C@@H]2OC(CO)[C@H](O)C(O)C2O)[C@@H](O)C(CO)O[C@@H]1OC(C)[C@H](N)C(=O)NC(C(=O)N1CCC[C@H]1C(=O)NC(C)C(=O)N[C@@H](C)C(=O)NC(C(=O)N[C@H](C(=O)NC(C)C(=O)N[C@H](C(=O)O)C(C)C)C(C)C)C(C)C)C(C)C (stereo partly shown) [Derivative 20] (H-[Thr(3ξ)](X1)[ξV]P[ξA]A[ξV]V[ξA]V-OH)	loss of most or all biological activity	inactive	–
CC(=O)NC1C(O[C@@H]2OC(CO)[C@H](O)C(O)C2O)[C@@H](O)C(CO)O[C@@H]1OC(C)[C@H](N)C(=O)NC(C(=O)N[C@@H](C)C(=O)NC(C)C(=O)N[C@@H](C)C(=O)NC(C(=O)N[C@H](C(=O)NC(C(=O)N[C@@H](C)C(=O)O)C(C)C)C(C)C)C(C)C)C(C)C (stereo partly shown) [Derivative 11] (H-[Thr(3ξ)](X1)[ξV]A[ξA]A[ξV]V[ξV]A-OH)	2-3 orders of magnitude decrease	0.3%	–
CC(=O)NC1C(O[C@@H]2OC(CO)[C@H](O)C(O)C2O)[C@@H](O)C(CO)O[C@@H]1OC(C)[C@H](N)C(=O)NC(C(=O)N1CC(OC(C)(C)C)C[C@H]1C(=O)NC(C)C(=O)N[C@@H](C)C(=O)NC(C(=O)N[C@H](C(=O)NC(C(=O)N[C@@H](C)C(=O)O)C(C)C)C(C)C)C(C)C)C(C)C (stereo partly shown) [Derivative 13] (H-[Thr(3ξ)](X1)[ξV][X2][ξA]A[ξV]V[ξV]A-OH)	2-3 orders of magnitude decrease	0.2%	–
CC(=O)NC1C(O[C@@H]2OC(CO)[C@H](O)C(O)C2O)[C@@H](O)C(CO)O[C@@H]1OC[C@H](N)C(=O)NC(CC(C)C)C(=O)N1CCC[C@H]1C(=O)NC(C)C(=O)N[C@@H](C)C(=O)NC(C(=O)N[C@H](C(=O)NC(C(=O)N[C@@H](C)C(=O)O)C(C)C)C(C)C)C(C)C (stereo partly shown) [Derivative 2] (H-S(X1)[ξL]P[ξA]A[ξV]V[ξV]A-OH)	two orders of magnitude loss of potency	1%	–
CC(=O)NC1C(O[C@@H]2OC(CO)[C@H](O)C(O)C2O)[C@@H](O)C(CO)O[C@@H]1OC(C)[C@H](NC(=O)C(N)Cc1ccc(O)cc1)C(=O)NC(CC(C)C)C(=O)N1CCC[C@H]1C(=O)NC(C)C(=O)N[C@@H](C)C(=O)NC(C(=O)N[C@H](C(=O)NC(C(=O)N[C@@H](C)C(=O)O)C(C)C)C(C)C)C(C)C (stereo partly shown) [Derivative 6] (H-[ξY][Thr(3ξ)](X1)[ξL]P[ξA]A[ξV]V[ξV]A-OH)	approximately 2 orders of magnitude loss of potency	1%	–
CC(=O)NC1C(O[C@@H]2OC(CO)[C@H](O)C(O)C2O)[C@@H](O)C(CO)O[C@@H]1OC(C)[C@H](N)C(=O)NC(C(=O)N1CCC[C@H]1C(=O)NC(C)C(=O)N[C@@H](C)C(=O)NC(C(=O)N[C@H](C(=O)NC(C(=O)O)C(C)C)C(C)C)C(C)C)C(C)C (stereo partly shown) [Derivative 18, Galβ1-3GalNAcα-O-TVPAAVVV] (H-[Thr(3ξ)](X1)[ξV]P[ξA]A[ξV]V[ξV]-OH)	full activity	100%	100
CCC(C)C(NC(=O)[C@H](C)NC(=O)C(C)NC(=O)[C@@H]1CCCN1C(=O)C(NC(=O)[C@@H](N)C(C)O[C@H]1OC(CO)[C@H](O)C(O[C@@H]2OC(CO)[C@H](O)C(O)C2O)C1NC(C)=O)C(C)C)C(=O)N[C@H](C(=O)NC(C(=O)N[C@@H](C)C(=O)O)C(C)CC)C(C)C (stereo partly shown) [Derivative 28] (H-[Thr(3ξ)](X1)[ξV]P[ξA]A[ξI]V[ξI]A-OH)	complete inactivation of antiproliferative activity	inactive	–
CC(=O)NC1C(O[C@@H]2OC(CO)[C@H](O)C(O)C2O)[C@@H](O)C(CO)O[C@@H]1OC(C)[C@H](N)C(=O)NC(C(=O)N1CCC[C@H]1C(=O)NC(C)C(=O)N[C@H](C(=O)NC(C(=O)N[C@H](C(=O)NC(C(=O)N[C@@H](C)C(=O)O)C(C)C)C(C)C)C(C)C)C(C)C)C(C)C (stereo partly shown) [Derivative 22] (H-[Thr(3ξ)](X1)[ξV]P[ξA]V[ξV]V[ξV]A-OH)	loss of most or all biological activity	inactive	–
CC(=O)NC1C(O[C@@H]2OC(CO)[C@H](O)C(O)C2O)[C@@H](O)C(CO)O[C@@H]1OC(C)[C@H](N)C(=O)NC(C(=O)N1CCC[C@H]1C(=O)NCCCCCCCCCCCC(=O)O)C(C)C (stereo partly shown) [Derivative 16]	completely inactive	inactive	–
CC(=O)NC1C(O[C@@H]2OC(CO)[C@H](O)C(O)C2O)[C@@H](O)C(CO)O[C@@H]1OC(C)[C@H](N)C(=O)NC(CC(C)C)C(=O)N1CCC[C@H]1C(=O)NC(C)C(=O)N[C@@H](C)C(=O)NC(C(=O)N[C@H](C(=O)NC(C(=O)N[C@@H](C)C(=O)O)C(C)C)C(C)C)C(C)C (stereo partly shown) [Derivative 4] (H-[Thr(3ξ)](X1)[ξL]P[ξA]A[ξV]V[ξV]A-OH)	inactivation	inactive	–
CC(=O)NC1C(O[C@@H]2OC(CO)[C@H](O)C(O)C2O)[C@@H](O)C(CO)O[C@@H]1OC(C)[C@H](N)C(=O)NC(C(=O)N1CC(O)C[C@H]1C(=O)NC(C)C(=O)N[C@@H](C)C(=O)NC(C(=O)N[C@H](C(=O)NC(C(=O)N[C@@H](C)C(=O)O)C(C)C)C(C)C)C(C)C)C(C)C (stereo partly shown) [Derivative 12] (H-[Thr(3ξ)](X1)[ξV][X3][ξA]A[ξV]V[ξV]A-OH)	2-3 orders of magnitude decrease	0.3%	–
CC(=O)NC1C(O[C@@H]2OC(CO)[C@H](O)C(O)C2O)[C@@H](O)C(CO)O[C@@H]1OC(C)[C@H](N)C(=O)NC(C(=O)N1CCC[C@H]1C(=O)NC(C)C(=O)N[C@@H](C)C(=O)NC(C(=O)N[C@H](C(=O)O)C(C)C)C(C)C)C(C)C (stereo partly shown) [Derivative 19, Galβ1-3GalNAcα-O-TVPAAVV] (H-[Thr(3ξ)](X1)[ξV]P[ξA]A[ξV]V-OH)	completely inactive	inactive	–
CC(=O)NC1C(O[C@@H]2OC(CO)[C@H](O)C(O)C2O)[C@@H](O)C(CO)O[C@@H]1OC(C)[C@H](N)C(=O)NC(C(=O)N1CCC[C@H]1C(=O)NC(C)C(=O)N[C@@H](C)C(=O)NC(C(=O)NC(C(=O)NC(C(=O)N[C@@H](C)C(=O)O)C(C)C)C(C)C)C(C)C)C(C)C (stereo partly shown) [Derivative 27]	complete inactivation of antiproliferative activity	inactive	–
CC(=O)NC1C(O[C@@H]2OC(CO)[C@H](O)C(O)C2O)[C@@H](O)C(CO)O[C@@H]1OC(C)[C@H](N)C(=O)NC(Cc1ccc(O)cc1)C(=O)N1CCC[C@H]1C(=O)NC(C)C(=O)N[C@@H](C)C(=O)NC(C(=O)N[C@H](C(=O)NC(C(=O)N[C@@H](C)C(=O)O)C(C)C)C(C)C)C(C)C (stereo partly shown) [Derivative 7] (H-[Thr(3ξ)](X1)[ξY]P[ξA]A[ξV]V[ξV]A-OH)	complete inactivation	inactive	–
CC(=O)NC1C(O[C@@H]2OC(CO)[C@H](O)C(O)C2O)[C@@H](O)C(CO)O[C@@H]1OC(C)[C@H](N)C(=O)NC(C(=O)N(C)[C@@H](C)C(=O)NC(C)C(=O)N[C@@H](C)C(=O)NC(C(=O)N[C@H](C(=O)NC(C(=O)N[C@@H](C)C(=O)O)C(C)C)C(C)C)C(C)C)C(C)C (stereo partly shown) [Derivative 14] (H-[Thr(3ξ)](X1)[ξV][NMeA][ξA]A[ξV]V[ξV]A-OH)	4 orders of magnitude decrease	0.05%	–
